The results in this text go back to US9926529B2, “Derivation of neural stem cells and dopaminergic neurons from human pluripotent stem cells” (International Stem Cell Corporation, priority 2012, dated 2018).

Common to all, as to assay type: cell-based, human
The test system of one assay is hPSC-derived DA neurons. The experiment in a line: Whole cell patch clamp electrophysiology of GS-treated neurons. Conditions: current clamp, after 90 days of GS treatment. As for the experimental part: Whole cell patch clamp electrophysiology methods. For electrophysiological recordings, the cells were transferred to a recording chamber mounted on an inverted Olympus microscope. During the recordings the temperature was maintained at 31-32° C., and the cells perfused at constant flow of 1 ml/min. with 150 mM NaCl, 4 mM KCl, 1.8 mM CaCl2, 1 mM MgCl2, 10 mM HEPES, 10 mM Glucose at pH 7.30 and 315 mOsm. Whole-cell recordings were obtained using borosilicate electrodes with tip resistance of 2-3 MΩ, filled with 130 mM K-Gluconate, 5 mM NaCl, 5 mM KCl, 10 mM HEPES, 20 mM Sucrose, 0.3 mM EGTA, 3 mM MgATP at pH 7.30 and 290 mOsm. Data were acquired using an HEKA EPC-10 digitizer/amplifier. Once whole-cell access was achieved the resting membrane potential was immediately recorded; the cells were then allowed to equilibrate for 3-5 min. From a resting membrane potential of −70 mV, the cells were then depolarized in current-clamp mode with 200 ms current injections, delivered at 0.2 Hz., and with increasing amplitude from 50 pA to up to 1000 pA to induce action potentials. The presence of inward or outward currents was determined by applying a voltage ramp. Cells with unstable recording configuration or for which the series resistance became larger than 15MΩ were excluded from the study. Twenty different cells were recorded and action potentials were obtained from 7 patch-clamped cells.

Assay [1] deals with hPSC-NSCs. The experiment in a line: RT-PCR expression of dopamine neuron genes in hPSC-NSCs treated with small molecule hits. To be noted: Homo sapiens, Neuron, 336 h, hPSC-NSCs primed 7 days with Purmorphamine and FGF8, small molecule 2.5 μM for two weeks. The procedure, abridged:
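hPSC-NSCs pre-patterned 7 days with Purmorphamine (2 μM) plus FGF8 (100 ng/mL) in NB medium, then treated with compounds at 2.5 μM final for two weeks. Total RNA reverse-transcribed; SYBR Green qPCR for dopaminergic/neuronal markers, relative quantification against a standard curve, normalized to PPIG; mean±s.e.m.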

In assay [2] the test system is hPSC-NSCs. The experiment in a line: Percentage of TH positive cells produced by chemical treatment. To be noted: chemical treatment 2.5 μM for two weeks. The procedure: The method specifically involved treating both hESC-H9-NSCs (Invitrogen) and hPSC-NSCs with Purmorphamine (2 μM) and FGF8 (100 ng/mL) in NB medium [NeuroBasal medium, 1× GlutaMAX, 1× N2/B27 Supplement (Invitrogen)] for 7 days. After 7 days of Purmorphamine and FGF8 treatment, the NSCs were dissociated with Accutase (Sigma) and plated 20,000 cells/mL into Matrigel coated 96 well plates and treated with small molecule library (Torcris 1120 Biologically Active Compounds) at 2.5 μM final concentration for two weeks (FIG. 6A). Two weeks after treatment with small molecules, all wells were visually observed and scored based on neurite density and dopamine release. For measuring neurite density, cells were fixed with 4% paraformaldehyde and phase contrast images were acquired using Cellavista Cell Imaging System (Roche Applied Science) from randomly selected fields. Neurite density was measured using the Cellavista density software image processing program. Each experimental condition was done in duplicate wells, and at least three independent experiments were conducted to acquire the final results.
Conditioned medium from the top neurite inducers (Table 1) (wells containing the highest density of neurites compare to control 0.1% DMSO treated) were collected and analyzed using a dopamine ELISA assay (Cosmo Bio). Conditioned medium was collected from samples containing 50,000 cells per well and centrifuged at 3000 RPM to remove cell debris. Supernatant was then collected and analyzed for quantitative determination of dopamine using a commercial dopamine ELISA assay kit (CusaCosmo Bio). Data analysis was performed using the microtiter plate reader (BIO-TEK Synergy 2). The results presented are from three independent experiments (n=3) and represented as mean±standard error of mean (s.e.m.) and statistical analysis was performed using the two-tailed Student's t-test with a confidence level of 95% (α=0.05) with statistical significance of P<0.05. Additionally, total RNA from each well were collected and analyze by RT-PCR for expression of TuJ1, MAP2, TH, GRK2, EN1, DAT, AADC, PAX2, NURR1, PITX3 and LMX1B from hPSC-NSCs (Table 2). […] Analysis of the ELISA data indicated the top small molecule neurite inducers produced higher levels of dopamine than control non-treated cells (1.5 ng/mL). […] The percentages of TH positive cells produced by chemical treatment with Kenpaullone (33%), Guggulsterone (35%), Kynurenic Acid (19%), Immedthridine Dihydrobromide (21%), and Dimaprit Dihydrochloride (18%) were higher than 15% of TH positive cells obtained from hPSC-NSCs differentiated for ≥1 month using a standard dopaminergic differentiation medium (BDNF 20 ng/mL, GDNF 20 ng/mL, cAMP 200 μM, Abscorbic Acid 200 μM, TGFβ3 2 ng/mL and DAPT).

Read-outs that look alike come from different tables or passages of the source.

Regarding `C/C=C1\C(=O)C[C@H]2[C@@H]3CCC4=CC(=O)CC[C@]4(C)[C@H]3CC[C@]12C` [Guggulsterone], in the assay on hPSC-derived DA neurons, the “patch-clamped cells in which action potentials were found” value is given as 7 out of 20. For the same compound, the fold induction at 2.5 µM came out at 9.82 with hPSC-NSCs [1] (read-out: DDC (AADC) expression by RT-PCR); 10 with hPSC-NSCs [1] (read-out: EN1 expression by RT-PCR); 0.01 in the assay on hPSC-NSCs [1] (read-out: KCNJ6 expression by RT-PCR); 6.45 with hPSC-NSCs [1] (read-out: LMX1B expression by RT-PCR); 9.05 in the assay with hPSC-NSCs [1] (read-out: MAP2 expression by RT-PCR); 0.53 with hPSC-NSCs [1] (read-out: NR4A2 (NURR1) expression by RT-PCR). The fold induction at 2.5 µM came out at 0.48 in the assay on hPSC-NSCs [1] (read-out: PITX3 expression by RT-PCR); 0.03 in the assay on hPSC-NSCs [1] (read-out: Pax2 expression by RT-PCR); 1.03 with hPSC-NSCs [1] (read-out: SLC6A3 (DAT) expression by RT-PCR); 10.6 with hPSC-NSCs [1] (read-out: TH1 expression by RT-PCR); 6.83 in the assay with hPSC-NSCs [1] (read-out: Tubb3 expression by RT-PCR). Besides, the “percentage of TH positive cells” value in the assay on hPSC-NSCs [2] was 35%.
